# Data as given in ChEMBL document CHEMBL1201861, “Genomics of Drug Sensitity in Cancer screening data, Wellcome Trust Sanger Institute”.
# Assays:
# Experiment in all cases: cells
# Conditions in all cases: Homo sapiens
# [1] = system: CP66-MEL; type: functional, cell-based;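 note: growth inhibition of CP66-MEL cells determined in a cell viability assay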
# Description: SANGER: Inhibition of human CP66-MEL cell growth in a cell viability assay.
# [2] = system: Calu-6; type: functional, cell-based;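 note: growth of human Calu-6 cells, read out by a cell viability assay, IC50 marking inhibition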
# Description: SANGER: Inhibition of human Calu-6 cell growth in a cell viability assay.
# [3] = system: DB; type: functional, cell-based
# Description: SANGER: Inhibition of human DB cell growth in a cell viability assay.
# [4] = system: ES1; type: functional, cell-based;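 note: growth inhibition of ES1 cells, read out with a cell viability assay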
# Description: SANGER: Inhibition of human ES1 cell growth in a cell viability assay.
# [5] = system: ES6; type: functional, cell-based;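 note: growth inhibition of human ES6 cells, read out with a cell viability assay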
# Description: SANGER: Inhibition of human ES6 cell growth in a cell viability assay.
# [6] = system: GAK; type: functional, cell-based;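 note: cell growth inhibition read out by a cell viability assay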
# Description: SANGER: Inhibition of human GAK cell growth in a cell viability assay.
# [7] = system: GB-1; type: functional, cell-based;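 note: growth of GB-1 cells judged by a viability assay, IC50 marks the concentration inhibiting growth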
# Description: SANGER: Inhibition of human GB-1 cell growth in a cell viability assay.
# [8] = system: HC-1; type: functional, cell-based;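 note: growth inhibition of HC-1 cells measured by a cell viability assay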
# Description: SANGER: Inhibition of human HC-1 cell growth in a cell viability assay.
# [9] = system: HD-MY-Z; type: functional, cell-based;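 note: growth inhibition of HD-MY-Z cells, read out with a cell viability assay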
# Description: SANGER: Inhibition of human HD-MY-Z cell growth in a cell viability assay.
# [10] = system: HH; type: functional, cell-based
# Description: SANGER: Inhibition of human HH cell growth in a cell viability assay.
# [11] = system: HuTu80; type: functional, cell-based, HUTU-80;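 note: growth inhibition of HuTu80 human cells, determined with a cell viability readout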
# Description: SANGER: Inhibition of human HUTU-80 cell growth in a cell viability assay.
# [12] = system: IST-SL1; type: functional, cell-based;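 note: growth inhibition of human IST-SL1 cells, read out with a cell viability assay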
# Description: SANGER: Inhibition of human IST-SL1 cell growth in a cell viability assay.
# [13] = system: JAR; type: functional, cell-based;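 note: growth inhibition of human JAR cells determined with a cell viability assay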
# Description: SANGER: Inhibition of human JAR cell growth in a cell viability assay.
# [14] = system: JEG-3; type: functional, cell-based;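 note: growth inhibition of human JEG-3 cells, read out with a cell viability assay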
# Description: SANGER: Inhibition of human JEG-3 cell growth in a cell viability assay.
# [15] = system: KINGS-1; type: functional, cell-based;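 note: cell viability assay measuring suppression of KINGS-1 cell growth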
# Description: SANGER: Inhibition of human KINGS-1 cell growth in a cell viability assay.
# [16] = system: KM-H2; type: functional, cell-based;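 note: growth inhibition of KM-H2 cells, read out by a cell viability assay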
# Description: SANGER: Inhibition of human KM-H2 cell growth in a cell viability assay.
# [17] = system: KM12; type: functional, cell-based;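 note: KM12 cell growth inhibition, read out with a cell viability assay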
# Description: SANGER: Inhibition of human KM12 cell growth in a cell viability assay.
# [18] = system: KYSE-450; type: functional, cell-based;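 note: cell growth inhibition measured by a viability assay in human KYSE-450 cells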
# Description: SANGER: Inhibition of human KYSE-450 cell growth in a cell viability assay.
# [19] = system: LB2518-MEL; type: functional, cell-based;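 note: growth inhibition of human LB2518-MEL cells, measured with a cell viability assay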
# Description: SANGER: Inhibition of human LB2518-MEL cell growth in a cell viability assay.
# [20] = system: LB831-BLC; type: functional, cell-based;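 note: growth inhibition of LB831-BLC cells, read out with a cell viability assay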
# Description: SANGER: Inhibition of human LB831-BLC cell growth in a cell viability assay.
# [21] = system: LS-1034; type: functional, cell-based
# Description: SANGER: Inhibition of human LS-1034 cell growth in a cell viability assay.
# [22] = system: MDA-MB-157; type: functional, cell-based
# Description: SANGER: Inhibition of human MDA-MB-157 cell growth in a cell viability assay.
# [23] = system: MDA-MB-453; type: functional, cell-based
# Description: SANGER: Inhibition of human MDA-MB-453 cell growth in a cell viability assay.
# [24] = system: MHH-PREB-1; type: functional, cell-based;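 note: cell viability assay measuring inhibition of proliferation of human MHH-PREB-1 cells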
# Description: SANGER: Inhibition of human MHH-PREB-1 cell growth in a cell viability assay.
# [25] = system: MKN-45; type: functional, cell-based;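 note: growth inhibition of human MKN-45 cells, measured with a cell viability assay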
# Description: SANGER: Inhibition of human MKN45 cell growth in a cell viability assay.
# [26] = system: ML-2; type: functional, cell-based;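 note: growth inhibition of ML-2 cells, measured with a cell viability readout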
# Description: SANGER: Inhibition of human ML-2 cell growth in a cell viability assay.
# [27] = system: MN-60; type: functional, cell-based;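 note: growth inhibition of the MN-60 cell line, determined with a cell viability assay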
# Description: SANGER: Inhibition of human MN-60 cell growth in a cell viability assay.
# [28] = system: MS-1; type: functional, cell-based;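 note: growth inhibition of MS-1 cells, read out by cell viability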
# Description: SANGER: Inhibition of human MS-1 cell growth in a cell viability assay.
# [29] = system: MV4-11; type: functional, cell-based, MV-4-11;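 note: cell viability readout measuring growth inhibition of human MV-4-11 cells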
# Description: SANGER: Inhibition of human MV-4-11 cell growth in a cell viability assay.
# [30] = system: NCI-H1155; type: functional, cell-based;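 note: cell growth inhibition measured by a viability assay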
# Description: SANGER: Inhibition of human NCI-H1155 cell growth in a cell viability assay.
# [31] = system: NCI-H1299; type: functional, cell-based;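 note: growth inhibition of human NCI-H1299 cells, read out by a cell viability assay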
# Description: SANGER: Inhibition of human NCI-H1299 cell growth in a cell viability assay.
# [32] = system: NCI-H1355; type: functional, cell-based;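 note: growth inhibition of human NCI-H1355 cells, read out by a cell viability assay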
# Description: SANGER: Inhibition of human NCI-H1355 cell growth in a cell viability assay.
# [33] = system: NCI-H1770; type: functional, cell-based;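 note: growth inhibition of NCI-H1770 cells determined with a viability readout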
# Description: SANGER: Inhibition of human NCI-H1770 cell growth in a cell viability assay.
# [34] = system: NCI-H1838; type: functional, cell-based;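 note: growth inhibition of NCI-H1838 cells, determined with a cell viability readout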
# Description: SANGER: Inhibition of human NCI-H1838 cell growth in a cell viability assay.
# [35] = system: NCI-H2052; type: functional, cell-based;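 note: growth inhibition of NCI-H2052 cells, read out with a cell viability assay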
# Description: SANGER: Inhibition of human NCI-H2052 cell growth in a cell viability assay.
# [36] = system: SNU1; type: functional, cell-based;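 note: growth inhibition of human NCI-SNU-1 cells, measured with a cell viability assay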
# Description: SANGER: Inhibition of human NCI-SNU-1 cell growth in a cell viability assay.
# [37] = system: OCI-AML2; type: functional, cell-based;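 note: growth inhibition of OCI-AML2 cells, read out with a cell viability assay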
# Description: SANGER: Inhibition of human OCI-AML2 cell growth in a cell viability assay.
# [38] = system: OCUB-M; type: functional, cell-based;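 note: growth inhibition of the cancer cell line, read out through a cell viability assay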
# Description: SANGER: Inhibition of human OCUB-M cell growth in a cell viability assay.
# [39] = system: OVCAR-8; type: functional, cell-based;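 note: growth inhibition of human OVCAR-8 cells, read out by a cell viability assay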
# Description: SANGER: Inhibition of human OVCAR-8 cell growth in a cell viability assay.
# [40] = system: QIMR-WIL; type: functional, cell-based;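 note: growth inhibition of QIMR-WIL cells, read out with a cell viability assay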
# Description: SANGER: Inhibition of human QIMR-WIL cell growth in a cell viability assay.
# [41] = system: RCC10RGB; type: functional, cell-based;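 note: growth inhibition of human RCC10RGB cells, read out by a cell viability assay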
# Description: SANGER: Inhibition of human RCC10RGB cell growth in a cell viability assay.
# [42] = system: RPMI-8226; type: functional, cell-based
# Description: SANGER: Inhibition of human RPMI-8226 cell growth in a cell viability assay.
# [43] = system: RPMI-8866; type: functional, cell-based
# Description: SANGER: Inhibition of human RPMI-8866 cell growth in a cell viability assay.
# [44] = system: RS4-11; type: functional, cell-based;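 note: growth inhibition of RS4-11 cells, read out by a cell viability assay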
# Description: SANGER: Inhibition of human RS4-11 cell growth in a cell viability assay.
# [45] = system: SF-126; type: functional, cell-based;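 note: growth inhibition of human SF126 cells, read out with a cell viability assay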
# Description: SANGER: Inhibition of human SF126 cell growth in a cell viability assay.
# [46] = system: SF-268; type: functional, cell-based;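 note: growth inhibition of SF-268 cells determined with a cell viability assay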
# Description: SANGER: Inhibition of human SF268 cell growth in a cell viability assay.
# [47] = system: SNB-75; type: functional, cell-based;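 note: cell viability assay measuring growth inhibition of human SNB-75 cells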
# Description: SANGER: Inhibition of human SNB75 cell growth in a cell viability assay.
# [48] = system: SW 962; type: functional, cell-based;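 note: growth inhibition of human SW962 cells, read out by a cell viability assay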
# Description: SANGER: Inhibition of human SW962 cell growth in a cell viability assay.
# [49] = system: SW982; type: functional, cell-based;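 note: growth inhibition of SW982 cells, read out with a cell viability assay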
# Description: SANGER: Inhibition of human SW982 cell growth in a cell viability assay.
# [50] = system: 697; type: functional, cell-based
# Description: SANGER: Inhibition of human 697 cell growth in a cell viability assay.
# [51] = system: A498; type: functional, cell-based;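 note: growth inhibition of human A498 cells, read out with a cell viability assay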
# Description: SANGER: Inhibition of human A498 cell growth in a cell viability assay.
# [52] = system: A704; type: functional, cell-based;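 note: growth inhibition of human A704 cells, read out with a cell viability assay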
# Description: SANGER: Inhibition of human A704 cell growth in a cell viability assay.
# [53] = system: AM-38; type: functional, cell-based;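 note: growth inhibition of AM-38 cells of human origin, read out by a cell viability assay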
# Description: SANGER: Inhibition of human AM-38 cell growth in a cell viability assay.
# [54] = system: C8166; type: functional, cell-based;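 note: growth inhibition of human C8166 cells measured by a cell viability assay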
# Description: SANGER: Inhibition of human C8166 cell growth in a cell viability assay.
# [55] = system: TE-12; type: functional, cell-based;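 note: growth inhibition of TE-12 cells, read out by a cell viability assay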
# Description: SANGER: Inhibition of human TE-12 cell growth in a cell viability assay.
# [56] = system: UACC-893; type: functional, cell-based
# Description: SANGER: Inhibition of human UACC-893 cell growth in a cell viability assay.
# [57] = system: UMC-11; type: functional, cell-based;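 note: growth inhibition of UMC-11 cells, read out with a cell viability assay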
# Description: SANGER: Inhibition of human UMC-11 cell growth in a cell viability assay.
# [58] = system: no-11; type: functional, cell-based;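 note: growth inhibition of human NO-11 cells, read out with a cell viability assay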
# Description: SANGER: Inhibition of human no-11 cell growth in a cell viability assay.
# [59] = system: COLO-684; type: functional, cell-based
# Description: SANGER: Inhibition of human COLO-684 cell growth in a cell viability assay.
# [60] = system: EOL1; type: functional, cell-based
# Description: SANGER: Inhibition of human EoL-1-cell cell growth in a cell viability assay.
# [61] = system: LAN-6; type: functional, cell-based
# Description: SANGER: Inhibition of human LAN-6 cell growth in a cell viability assay.
# [62] = system: NB13; type: functional, cell-based
# Description: SANGER: Inhibition of human NB13 cell growth in a cell viability assay.
# [63] = system: NCI-H1563; type: functional, cell-based
# Description: SANGER: Inhibition of human NCI-H1563 cell growth in a cell viability assay.
compound,measurement,setting,value
NC(=O)c1ncn([C@@H]2O[C@H](COP(=O)(O)O)[C@@H](O)[C@H]2O)c1N,IC50,[1],> 2000 µM
same,IC50,[2],732 µM
same,IC50,[3],91.3 µM
same,IC50,[4],> 2000 µM
same,IC50,[5],> 2000 µM
same,IC50,[6],> 2000 µM
same,IC50,[7],> 2000 µM
same,IC50,[8],1160 µM
same,IC50,[9],1950 µM
same,IC50,[10],232 µM
same,IC50,[11],> 2000 µM
same,IC50,[12],> 2000 µM
same,IC50,[13],346 µM
same,IC50,[14],1440 µM
same,IC50,[15],> 2000 µM
same,IC50,[16],1170 µM
same,IC50,[17],> 2000 µM
same,IC50,[18],1300 µM
same,IC50,[19],> 2000 µM
same,IC50,[20],> 2000 µM
same,IC50,[21],> 2000 µM
same,IC50,[22],1210 µM
same,IC50,[23],> 2000 µM
same,IC50,[24],416 µM
same,IC50,[25],> 2000 µM
same,IC50,[26],> 2000 µM
same,IC50,[27],> 2000 µM
same,IC50,[28],425 µM
same,IC50,[29],108 µM
same,IC50,[30],800 µM
same,IC50,[31],> 2000 µM
same,IC50,[32],> 2000 µM
same,IC50,[33],485 µM
same,IC50,[34],> 2000 µM
same,IC50,[35],1490 µM
same,IC50,[36],464 µM
same,IC50,[37],1150 µM
same,IC50,[38],1190 µM
same,IC50,[39],> 2000 µM
same,IC50,[40],486 µM
same,IC50,[41],> 2000 µM
same,IC50,[42],501 µM
same,IC50,[43],> 2000 µM
same,IC50,[44],351 µM
same,IC50,[45],> 2000 µM
same,IC50,[46],> 2000 µM
same,IC50,[47],1400 µM
same,IC50,[48],> 2000 µM
same,IC50,[49],> 2000 µM
same,IC50,[50],483 µM
same,IC50,[51],> 2000 µM
same,IC50,[52],> 2000 µM
same,IC50,[53],1030 µM
same,IC50,[54],1170 µM
same,IC50,[55],> 2000 µM
same,IC50,[56],> 2000 µM
same,IC50,[57],> 2000 µM
same,IC50,[58],> 2000 µM
same,IC50,[59],894 µM
Cn1c(=O)n(-c2ccc(C(C)(C)C#N)cc2)c2c3cc(-c4cnc5ccccc5c4)ccc3ncc21 [DACTOLISIB],IC50,[2],> 2 µM
same,IC50,[3],0.0274 µM
same,IC50,[4],0.0288 µM
same,IC50,[5],0.0928 µM
same,IC50,[60],0.0139 µM
same,IC50,[6],0.0989 µM
same,IC50,[7],0.0542 µM
same,IC50,[9],0.0449 µM
same,IC50,[10],0.0157 µM
same,IC50,[12],1.44 µM
same,IC50,[13],0.956 µM
same,IC50,[14],0.0841 µM
same,IC50,[15],0.0823 µM
same,IC50,[16],0.171 µM
same,IC50,[17],0.236 µM
same,IC50,[18],0.0552 µM
same,IC50,[61],> 2 µM
same,IC50,[19],0.157 µM
same,IC50,[20],0.121 µM
same,IC50,[21],0.491 µM
same,IC50,[22],0.0354 µM
same,IC50,[23],> 2 µM
same,IC50,[24],0.00912 µM
same,IC50,[26],0.0606 µM
same,IC50,[27],0.038 µM
same,IC50,[28],0.108 µM
same,IC50,[29],0.0287 µM
same,IC50,[62],0.118 µM
same,IC50,[30],0.0483 µM
same,IC50,[31],0.15 µM
same,IC50,[32],0.0463 µM
same,IC50,[63],0.105 µM
same,IC50,[33],0.327 µM
same,IC50,[34],1.02 µM
same,IC50,[35],0.175 µM
same,IC50,[36],0.022 µM
same,IC50,[37],0.0826 µM
same,IC50,[38],0.0824 µM
same,IC50,[39],0.0313 µM
same,IC50,[40],0.0306 µM
same,IC50,[41],0.224 µM
same,IC50,[42],0.0338 µM
same,IC50,[43],0.0728 µM
same,IC50,[44],0.0269 µM
same,IC50,[45],0.0194 µM
same,IC50,[46],0.102 µM
same,IC50,[47],0.0543 µM
same,IC50,[48],0.0268 µM
same,IC50,[49],0.0499 µM
same,IC50,[50],0.0174 µM
same,IC50,[51],0.0752 µM
same,IC50,[52],0.0556 µM
same,IC50,[53],0.0693 µM
same,IC50,[54],> 2 µM
same,IC50,[55],0.141 µM
same,IC50,[56],0.406 µM
same,IC50,[57],0.458 µM
same,IC50,[58],0.113 µM
same,IC50,[59],0.0336 µM
